The source of these data is PubChem BioAssay (NCI).

Molecules are shown by their SMILES. “And” between values parts separate entries of the source, which are not always exact repeats. Equal values may be shown once.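 Five concentrations, 48 hours, 96-well plates. GI50: concentration for 50% inhibition of growth. The concentration for full growth arrest is given as TGI.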

Among the test systems are CCRF-CEM leukemia; UACC-257 melanoma; OVCAR-8 ovarian; IGROV1 ovarian; SK-MEL-2 melanoma; SF-295 CNS; U251 CNS; NCI-H226 lung; HOP-92 NSCLC.
What all share (test): NCI anticancer screen, dose series, 48 h

As for `COc1cc(C(=O)C/C(CCC(=O)Nc2ccc(Cl)cc2C)=N/NC(=O)C(N)=O)ccc1O`, the TGI with CCRF-CEM leukemia, in the assay with UACC-257 melanoma, in the assay on OVCAR-8 ovarian, in the assay with IGROV1 ovarian, in the assay with SK-MEL-2 melanoma and with SF-295 CNS was more than 100 µM throughout. Moreover, the TGI in the assay on U251 CNS, in the assay on NCI-H226 lung and in the assay with HOP-92 NSCLC was more than 100 µM each time.

`COC1OC(C)C(O)CC1OS(=O)(=O)c1ccc(C)cc1` (centres undefined): the TGI with CCRF-CEM leukemia, in the assay with UACC-257 melanoma, in the assay with OVCAR-8 ovarian, in the assay on IGROV1 ovarian, in the assay on SK-MEL-2 melanoma and with SF-295 CNS was more than 100 µM each time. Also, the TGI in the assay with U251 CNS, with NCI-H226 lung and in the assay with HOP-92 NSCLC was more than 100 µM in each case.

As for `C1CCN(C2OC3C(COC3N3CCCCC3)OC2OC2CCO[C@@H]2N2CCCCC2)CC1` (some centres undefined), the TGI was 40.4 µM in the assay on CCRF-CEM leukemia; 88.1 µM in the assay on UACC-257 melanoma; 59.2 µM in the assay with OVCAR-8 ovarian; more than 100 µM with IGROV1 ovarian; more than 100 µM in the assay with SK-MEL-2 melanoma; more than 100 µM with SF-295 CNS. The results for the TGI with U251 CNS, with NCI-H226 lung and with HOP-92 NSCLC were more than 100 µM, 54.1 µM and 47.5 µM, respectively.

As for `O=C(O)CC12C3C4C5C3C1C5C42` (centres undefined), the TGI in the assay on CCRF-CEM leukemia, with UACC-257 melanoma, in the assay with OVCAR-8 ovarian, in the assay with IGROV1 ovarian, in the assay on SK-MEL-2 melanoma and in the assay on SF-295 CNS was more than 100 µM throughout. Besides, the TGI in the assay with U251 CNS is more than 100 µM.

Turning to `CCc1nc(N)nc(C(=O)NCCNC(=O)c2nc(N)nc(CC)c2C)c1C`, the TGI in the assay with UACC-257 melanoma, with OVCAR-8 ovarian, with IGROV1 ovarian, in the assay on SK-MEL-2 melanoma, in the assay on SF-295 CNS and in the assay on U251 CNS was more than 100 µM in each case. Also, the TGI in the assay on NCI-H226 lung and with HOP-92 NSCLC was more than 100 µM in each case.

As to `Cc1ccc(/C=C/C(=O)c2sc(-c3cccnc3)nc2C)cc1`, the TGI with CCRF-CEM leukemia, in the assay with UACC-257 melanoma, in the assay on OVCAR-8 ovarian, in the assay with IGROV1 ovarian, with SK-MEL-2 melanoma and with SF-295 CNS was more than 100 µM in each case. In addition, the TGI in the assay on U251 CNS, in the assay with NCI-H226 lung and in the assay on HOP-92 NSCLC was more than 100 µM throughout.

On to `CCC[CH2][Sn]([CH2]CCC)([O]C(=O)C(N)CSC)[O]C(=O)C(N)CSC` (centres undefined), for which the GI50 with CCRF-CEM leukemia was 1.73 µM; with UACC-257 melanoma it was 11.8 µM; with OVCAR-8 ovarian it was 12.6 µM; with IGROV1 ovarian it was 17.8 µM; in the assay with SK-MEL-2 melanoma, 2.78 µM; in the assay on U251 CNS, 11.3 µM. The GI50 with NCI-H226 lung was 20.5 µM; in the assay on HOP-92 NSCLC, 8.05 µM. For the same compound, the TGI came out at 6.43 µM in the assay on CCRF-CEM leukemia; 26.1 µM in the assay on UACC-257 melanoma; 38.1 µM in the assay with OVCAR-8 ovarian; 34.2 µM in the assay with IGROV1 ovarian; 8.79 µM in the assay with SK-MEL-2 melanoma; 25.1 µM in the assay on U251 CNS. In addition, the TGI in the assay with NCI-H226 lung was 34.9 µM; with HOP-92 NSCLC, 20.3 µM.

Regarding `CC[O-].CC[O-].O=C1C(c2ccccc2)=C([O-])c2ccccc21.O=C1C(c2ccccc2)=C([O-])c2ccccc21.[Ti+4]`, the GI50 in the assay with UACC-257 melanoma, in the assay on OVCAR-8 ovarian, in the assay with IGROV1 ovarian, with SK-MEL-2 melanoma, in the assay with SF-295 CNS and in the assay with U251 CNS was more than 100 µM throughout. The GI50 in the assay with NCI-H226 lung and with HOP-92 NSCLC was more than 100 µM throughout. The TGI with UACC-257 melanoma, with OVCAR-8 ovarian, with IGROV1 ovarian, in the assay with SK-MEL-2 melanoma, with SF-295 CNS and with U251 CNS was more than 100 µM in each case. The TGI in the assay on NCI-H226 lung and with HOP-92 NSCLC was more than 100 µM in each case.

Take `O=P([O-])(O)OP(=O)([O-])O.[NH-][C@@H]1CCCC[C@H]1[NH-].[Pt+4]`: the GI50 with CCRF-CEM leukemia was 13 µM and 6.59 µM; with UACC-257 melanoma, 70.6 µM and 7.93 µM; in the assay on OVCAR-8 ovarian, 14.1 µM and 2.42 µM; in the assay with IGROV1 ovarian it was 12.3 µM and 4.8 µM; with SK-MEL-2 melanoma it was more than 53.2 µM; with SF-295 CNS, 26.2 µM and 14.5 µM. In addition, the GI50 with U251 CNS is 42.4 µM and 8.27 µM; in the assay on NCI-H226 lung, 32.3 µM and 5.29 µM; with HOP-92 NSCLC, > 100 µM and 12.2 µM. Also, the TGI with CCRF-CEM leukemia, with UACC-257 melanoma, in the assay on OVCAR-8 ovarian, with IGROV1 ovarian, in the assay with SK-MEL-2 melanoma and with SF-295 CNS was more than 100 µM throughout. Moreover, the TGI in the assay on U251 CNS was more than 100 µM; with NCI-H226 lung, > 100 µM and 33.6 µM; with HOP-92 NSCLC, more than 100 µM.

Regarding `COc1ccc2cc3[n+](cc2c1OC)CCc1cc(O)c(O)cc1-3`, the TGI with CCRF-CEM leukemia, in the assay with UACC-257 melanoma, in the assay with OVCAR-8 ovarian, in the assay on IGROV1 ovarian, in the assay with SF-295 CNS and in the assay with U251 CNS was more than 100 µM each time. Besides, the TGI with NCI-H226 lung and in the assay with HOP-92 NSCLC was more than 100 µM throughout.

`O=c1[nH]c2c3ccccc3ccc2c2cc3c(cc12)OCO3`: the TGI with CCRF-CEM leukemia, in the assay with UACC-257 melanoma, in the assay on OVCAR-8 ovarian, in the assay on IGROV1 ovarian, in the assay with SK-MEL-2 melanoma and with SF-295 CNS was more than 100 µM in each case. Moreover, the TGI in the assay on U251 CNS and with NCI-H226 lung was more than 100 µM each time.

As to `Cc1cc(C)nc(NS(=O)(=O)c2ccc(Nc3c4ccc(Cl)cc4nc4c(C(=O)Nc5ccc(S(=O)(=O)N=C(N)N)cc5)cccc34)cc2)n1`, the TGI in the assay on CCRF-CEM leukemia, in the assay on UACC-257 melanoma, in the assay with OVCAR-8 ovarian, in the assay with SF-295 CNS and with U251 CNS was more than 100 µM each time.

On to `CCn1c(O)c(C=N)c(=O)n(CC)c1=O`, for which the TGI with CCRF-CEM leukemia, in the assay with UACC-257 melanoma, in the assay with OVCAR-8 ovarian, in the assay on IGROV1 ovarian, in the assay on SK-MEL-2 melanoma and in the assay on SF-295 CNS was more than 100 µM each time. The TGI in the assay on NCI-H226 lung and with HOP-92 NSCLC was more than 100 µM in each case.

Regarding `Cc1ccc(NC(=O)CCC/C(CC(=O)c2ccc(Br)cc2)=N/NC(=O)CC#N)cc1`, the TGI with CCRF-CEM leukemia, in the assay on UACC-257 melanoma, in the assay on OVCAR-8 ovarian, in the assay on IGROV1 ovarian, in the assay on SK-MEL-2 melanoma and in the assay on SF-295 CNS was more than 100 µM in each case. Moreover, the TGI in the assay with U251 CNS, in the assay with NCI-H226 lung and in the assay on HOP-92 NSCLC was more than 100 µM each time.

For the compound `CCCCc1ccc(-n2c3nc(=O)n(C)c(=O)c-3nc3ccccc32)cc1`, the TGI came out at 41.6 µM with CCRF-CEM leukemia; 14.5 µM in the assay on UACC-257 melanoma; 32.1 µM in the assay on OVCAR-8 ovarian; 33.7 µM with IGROV1 ovarian; 24 µM in the assay with SK-MEL-2 melanoma; 23.1 µM in the assay on SF-295 CNS. The TGI in the assay with U251 CNS amounted to 23.5 µM; in the assay with NCI-H226 lung it was 26.6 µM.

For `Cc1cc(N2CCCC2)nc(NC2CCCC(Nc3ccnc4cc(Cl)ccc34)C2)n1` (centres undefined), the GI50 in the assay on CCRF-CEM leukemia is 0.408 µM; with UACC-257 melanoma it was 1.99 µM; in the assay on OVCAR-8 ovarian, 1.92 µM; in the assay on IGROV1 ovarian, 0.967 µM; in the assay on SK-MEL-2 melanoma, 1.7 µM; in the assay on SF-295 CNS, 1.47 µM. The values for the GI50 in the assay on U251 CNS and with NCI-H226 lung were 1.48 µM and 1.91 µM, respectively. Also, the TGI in the assay on CCRF-CEM leukemia is 3.37 µM; with UACC-257 melanoma, 3.76 µM; in the assay with OVCAR-8 ovarian, 4.39 µM; in the assay with IGROV1 ovarian, 3.2 µM; in the assay with SK-MEL-2 melanoma, 3.27 µM; in the assay with SF-295 CNS it was 2.89 µM. In addition, the TGI is 2.86 µM in the assay with U251 CNS and 3.92 µM in the assay with NCI-H226 lung.

Turning to `NC1CCCCC1N.O=S(=O)([O-])CCCN1CCOCC1.O=S(=O)([O-])CCCN1CCOCC1.[Pt+4]`, the GI50 in the assay on CCRF-CEM leukemia was 5.16 µM; in the assay with UACC-257 melanoma, 54.6 µM; in the assay on OVCAR-8 ovarian, 10.6 µM; in the assay on IGROV1 ovarian it was 18.1 µM; in the assay on SK-MEL-2 melanoma, 13.3 µM; in the assay on SF-295 CNS it was 15.5 µM. Further, the GI50 in the assay on U251 CNS was 13.7 µM; with NCI-H226 lung, 22.5 µM; in the assay with HOP-92 NSCLC, 32.4 µM. Moreover, the TGI in the assay on CCRF-CEM leukemia is 58.7 µM; in the assay with UACC-257 melanoma it was more than 100 µM; with OVCAR-8 ovarian it was more than 100 µM; with IGROV1 ovarian it was more than 100 µM; in the assay with SK-MEL-2 melanoma it was 44.5 µM; with SF-295 CNS, more than 100 µM. Besides, the TGI in the assay with U251 CNS, in the assay with NCI-H226 lung and in the assay with HOP-92 NSCLC was more than 100 µM in each case.

Regarding `COC(=O)C12CC(c3ccccc31)C1C(=O)OC(=O)C12` (centres undefined), the TGI in the assay on CCRF-CEM leukemia, with UACC-257 melanoma, in the assay on OVCAR-8 ovarian, in the assay on IGROV1 ovarian, with SK-MEL-2 melanoma and in the assay on SF-295 CNS was more than 100 µM each time. The TGI with U251 CNS and in the assay on HOP-92 NSCLC was more than 100 µM throughout.
